Publication PMC3685270 (Clinical pharmacology and therapeutics, 2011)
In brackets after ≈: the same amount, converted by molar mass. Entries after “also recorded” stand apart in the source; their conditions may differ. Like-named read-outs stand apart in the source and are kept apart here.

Tests used:
Pgp at the human BBB [1] = assay: [^11C]-N-desmethyl-loperamide PET after tariquidar in healthy human subjects; assay type: in vivo; settings: humans, without tariquidar
[2] = biological target: T1, P-glycoprotein (Pgp) at the blood-brain barrier (Homo sapiens, UniProt P08183); assay type: in vivo; settings: for EC50: tariquidar plasma concentration at end of PET scan
[3] = assay type: in vivo, human; settings: humans, maximum administered dose 8 mg/kg
[4] = Safety monitoring / adverse events after tariquidar infusion; assay type: in vivo, human; settings: for Tolerability: healthy subjects, 3, 4, 6 and 8 mg/kg i.v. infusion
Unmetabolized = assay type: in vivo, human; settings: AUC 0-40 min, different tariquidar doses vs 0 mg/kg
[5] = biological target: T1, P-glycoprotein (Pgp) at the blood-brain barrier; settings: (R)-[^11C]verapamil whole brain, tariquidar 2 mg/kg, n=5, cited from earlier work
[6] = system: P-glycoprotein (Pgp) at the blood-brain barrier; settings: cited from earlier work
[7] = humans; cited from earlier work
[8] = rats, bolus administration of 30 mg/kg; cited from earlier work
[9] = system: Pgp in CD56-positive lymphocytes; settings: single i.v. dose of 2 mg/kg, over 24 h; cited from earlier work
Pgp at the human BBB [10] = settings: 2 mg/kg dose; cited from earlier work
[11] = previous studies (human and rat); cited from earlier work
[12] = system: breast cancer resistance protein (BCRP, ABCG2); settings: cited from earlier work
[13] = rat, tariquidar plasma concentration at end of PET scan, 0-60 min

T1 sequence (P08183 whole entry): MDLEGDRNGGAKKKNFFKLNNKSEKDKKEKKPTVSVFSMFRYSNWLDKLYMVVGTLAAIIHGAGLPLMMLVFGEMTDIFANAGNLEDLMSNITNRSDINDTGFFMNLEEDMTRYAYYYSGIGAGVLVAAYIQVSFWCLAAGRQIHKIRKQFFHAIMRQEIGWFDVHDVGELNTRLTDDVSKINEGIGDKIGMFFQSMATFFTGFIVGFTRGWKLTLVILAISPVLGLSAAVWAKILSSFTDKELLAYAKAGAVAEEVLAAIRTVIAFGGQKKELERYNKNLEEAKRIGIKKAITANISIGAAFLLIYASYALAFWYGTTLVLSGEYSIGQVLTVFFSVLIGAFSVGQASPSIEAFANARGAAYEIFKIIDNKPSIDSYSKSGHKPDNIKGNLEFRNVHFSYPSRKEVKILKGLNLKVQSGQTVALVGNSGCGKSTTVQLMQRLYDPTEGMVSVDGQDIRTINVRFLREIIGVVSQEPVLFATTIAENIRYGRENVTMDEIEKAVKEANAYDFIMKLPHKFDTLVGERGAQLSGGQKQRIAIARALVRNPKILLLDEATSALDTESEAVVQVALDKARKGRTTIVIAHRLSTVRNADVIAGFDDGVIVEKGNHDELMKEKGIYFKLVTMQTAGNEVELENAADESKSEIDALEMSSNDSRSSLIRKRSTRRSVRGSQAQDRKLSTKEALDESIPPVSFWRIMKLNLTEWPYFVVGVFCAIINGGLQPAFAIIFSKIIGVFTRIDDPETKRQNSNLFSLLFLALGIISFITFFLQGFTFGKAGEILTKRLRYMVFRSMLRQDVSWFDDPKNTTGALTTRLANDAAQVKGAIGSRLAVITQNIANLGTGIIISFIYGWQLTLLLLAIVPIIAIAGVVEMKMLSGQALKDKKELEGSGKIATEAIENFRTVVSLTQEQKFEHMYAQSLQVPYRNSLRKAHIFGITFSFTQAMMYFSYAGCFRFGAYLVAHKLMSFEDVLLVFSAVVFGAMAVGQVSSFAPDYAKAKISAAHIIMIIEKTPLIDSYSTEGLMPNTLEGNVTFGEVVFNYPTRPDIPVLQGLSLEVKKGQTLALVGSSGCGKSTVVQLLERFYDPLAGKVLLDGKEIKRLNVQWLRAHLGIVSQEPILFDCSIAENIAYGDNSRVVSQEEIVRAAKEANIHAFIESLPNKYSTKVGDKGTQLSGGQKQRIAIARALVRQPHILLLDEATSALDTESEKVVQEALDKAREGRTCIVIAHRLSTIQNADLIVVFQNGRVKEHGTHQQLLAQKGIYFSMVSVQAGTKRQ

## CNC(=O)C(CCN1CCC(O)(c2ccc(Cl)cc2)CC1)(c1ccccc1)c1ccccc1 [[^11C]-N-desmethyl-loperamide]
Pgp at the human BBB [1]
  Baseline brain uptake lower as compared to (R)-[^11C]verapamil: 2 fold

## COc1cc2c(cc1OC)CN(CCc1ccc(NC(=O)c3cc(OC)c(OC)cc3NC(=O)c3cnc4ccccc4c3)cc1)CC2 [tariquidar]
[2]; EC50, K1–K1 baseline (1T2K), human, 0-10 min
  EC50: 806 nM
[2]; EC50, K1–K1 baseline (2T4K), human, 0-40 min
  EC50: 813 nM
[2]; EC50, VT–VT baseline (2T4K), human, 0-40 min
  EC50: 867 nM
[2]; human, 0-10 min
  n (Hill coefficient), K1–K1 baseline (1T2K): 6.2±3.5
[2]; human, 0-40 min
  n (Hill coefficient), K1–K1 baseline (2T4K): 6.3±3.5
  n (Hill coefficient), VT–VT baseline (2T4K): 11.3±5.4
[2]; humans
  Tariquidar plasma concentration at which brain VT approached plateau levels: > 1,000 ng/mL
[3]
  Tariquidar plasma concentration at time of PET: up to 1,312 ng/mL
[4]; 8 mg/kg group, infusion stopped 20 min prematurely (7.2 mg/kg administered)
  Hypotension adverse event: one case of moderate hypotension
[4]
  Tolerability: well tolerated at doses 4-times the clinically tried
[4]; listed as Tariquidar
  Tolerability: generally well tolerated
[4]; healthy subjects, 3-8 mg/kg
  Dysgeusia (relationship with study drug could not be excluded): 6 out of 20
[4]; healthy subjects, 3-8 mg/kg, 20 subjects
  Vertigo (relationship with study drug could not be excluded): 3 subjects
Unmetabolized
  Effect on concentration of unmetabolized (R)-[^11C]verapamil in plasma: lacked pharmacokinetic interactions; also recorded: did not affect
[5]; 0-10 min
  K1 (1T2K): 0.051±0.006 (6) mL·mL^−1·min^−1
[5]; 0-40 min
  K1 (2T4K): 0.051±0.008 (11) mL·mL^−1·min^−1
  VT (2T4K): 0.788±0.087 (2) mL·mL^−1
  k2 (2T4K): 0.123±0.052 (57) min^−1
  k3 (2T4K): 0.156±0.080 (123) min^−1
  k4 (2T4K): 0.191±0.063 (42) min^−1
[6]; [13]
  EC50, K1–K1 baseline (2T4K): 0.441 ± 0.081 µg/mL (≈ 0.682 µM)
  EC50, VT–VT baseline (2T4K): 0.544 ± 0.032 µg/mL (≈ 0.841 µM)
[6]; rats
  Tariquidar plasma concentration at which brain VT approached plateau levels: > 1,000 ng/mL
[7]
  Terminal elimination half-life from plasma: 13 to 23 h
[8]
  Tariquidar plasma concentration at the time of the PET scan: up to 7,000 ng/mL
[9]
  Block of Pgp in CD56-positive lymphocytes: 100%
Pgp at the human BBB [10]
  Increase in brain penetration of [^11C]-N-desmethyl-loperamide: 25%
[11]
  Effect of tariquidar on degree of plasma protein binding of (R)-[^11C]verapamil: does not influence
[12]
  Inhibition of BCRP: inhibits
